Data as given in patent US10087229B2, “Peptide compound” (TAKEDA PHARMACEUTICAL COMPANY LIMITED, priority 2013, dated 2018).
Square brackets hold non-standard residues; d marks the D form. Peptide text beside a SMILES is read from it. NMeY = CN[C@@H](Cc1ccc(O)cc1)C(=O)O; αMeF = C[C@](N)(Cc1ccccc1)C(=O)O; Aib = CC(C)(N)C(=O)O

Columns and labels:
male C57BL/6J mouse = assay: 2-days continuous subcutaneous administration test (feeding suppressive activity); assay type: in vivo; settings: 10 nmol/kg/day, subcutaneous Alzet pump, 2-days cumulative food consumption, control (solvent alone) = 0%
Outline: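 Male C57BL/6J mice, 8-9 weeks, given test compound at 10 nmol/kg/day by subcutaneously implanted osmotic pump (50% DMSO vehicle), housed singly with free food access. Cumulative 2-day food consumption measured; suppression rate (%) calculated relative to vehicle-only controls.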

[1] = test system: Diet-induced obesity (DIO) male C57BL/6J mice; assay: 2-weeks continuous subcutaneous administration study in DIO mice (anti-obesity activity); assay type: in vivo, mouse; settings: 1 nmol/kg/day, subcutaneous Alzet pump, 2 weeks after start of administration; rate of weight loss, control group regarded as 0%
Description: 2-Weeks Continuous Subcutaneous Administration Study in DIO Mice
The anti-obesity activity of a test compound was examined by the method described below.
Diet-induced obesity (DIO) mice were prepared by feeding male C57BL/6J mice with high-fat diet (D12451: Research Diets, Inc.). The test compound was dissolved in a solvent (50% DMSO) so that sustained release would occur at 1 nmol/kg/day, and the solution was filled in the Alzet Pump (DURECT Corporation, model: 1002). The pump thus filled with the solution to be administered was immersed in physiological saline for priming, and then used. The pump was embedded by the following method. Each male DIO-C57BL/6J mouse at 35-37 weeks of age (20-26° C., allowed to take food and water ad libitum; 12-hour bright-12-hour dark cycle) was anesthetized; the skin in the upper back thereof was incised, and the above-mentioned pump was embedded subcutaneously; the incision was sutured. After weighing, this mouse was returned to the rearing cage (reared alone), and given previously weighed food; the body weight was measured every 1 to 3 days after the start of administration. The anti-obesity activity of each test compound was evaluated on the basis of the rate of weight loss 2 weeks after the start of administration, with the rate of weight loss in a control group receiving administration of the solvent alone regarded as 0%.

human glucagon R = target: T1, human glucagon R (Homo sapiens, UniProt P47871); assay: Reporter assay of human glucagon R agonist activity, rise in intracellular cAMP as index (hGlucagonR/CRE-LUC/CHO-K1 cells); assay type: cell-based; settings: luciferase reporter; 10 nM glucagon = 100%, DMSO = 0%; 4 hours incubation; read-out: Agonist activity (EC50) hGCGR
T1 construct: expressed in transfected cells; host or cells: CHO-K1 (CRE-LUC/CHO-K1 reporter cells)
Excerpt: Evaluation of agonist activity against human GIPR, human GLP-1R and human glucagon R using rise in intracellular cAMP concentration as index
(2) Construction of Reporter Plasmid-Expressing Cell
The luciferase reporter gene having an upstream cAMP response sequence was introduced to CHO-K1 cells to construct CRE-LUC/CHO-K1 cells.
(7) Construction of Expression Plasmid for the Human Glucagon R Gene
The human glucagon R gene having a sequence identical to the sequence of GenBank Accession No. NM_000160 was cloned into pMSRα-neo vector to prepare hGlucagonR/pMSRα-neo.
(8) Introduction of the Human Glucagon R Gene into CRE-LUC/CHO-K1 Cell and Obtainment of Expressing Cell […]
The hGIPR/CRE-LUC/CHO-K1 cells were inoculated at a cell density of 25 μL/well (5×10^4 cells/well) to a 384-well white plate (Corning), and cultured overnight in Ham F12 medium containing 10% fetal bovine serum, 100 U/mL penicillin and 100 μg/mL streptomycin in a CO2 incubator of 37° C. […] After 30 minutes, the luciferase activity was measured using a plate reader Envision (PerkinElmer). […] The GIPR agonist activity was calculated with a rise in intracellular cAMP concentration as an index.
The glucagon R agonist activity was assayed in the same way as above using the hGlucagonR/CRE-LUC/CHO-K1 cells. […] The glucagon agonist activity was calculated with a rise in intracellular cAMP concentration as an index.

T1 sequence (P47871 26-477): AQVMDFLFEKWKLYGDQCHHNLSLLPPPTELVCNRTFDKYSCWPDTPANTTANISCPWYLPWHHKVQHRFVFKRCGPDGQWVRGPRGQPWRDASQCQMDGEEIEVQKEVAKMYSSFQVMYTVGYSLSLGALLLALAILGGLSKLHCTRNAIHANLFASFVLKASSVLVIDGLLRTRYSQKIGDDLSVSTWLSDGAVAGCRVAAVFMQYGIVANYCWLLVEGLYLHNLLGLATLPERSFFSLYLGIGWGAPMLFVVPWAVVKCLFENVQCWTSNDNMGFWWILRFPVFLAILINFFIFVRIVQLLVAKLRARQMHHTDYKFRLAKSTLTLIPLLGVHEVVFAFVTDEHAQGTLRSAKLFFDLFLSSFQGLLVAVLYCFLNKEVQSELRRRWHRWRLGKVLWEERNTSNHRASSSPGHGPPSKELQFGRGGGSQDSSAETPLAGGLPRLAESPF

Structure (SMILES)	Food intake suppression (%) (male C57BL/6J mouse)	Change in body weight [1]	EC50 (human glucagon R) [µM]
CC(C)C[C@H](NC(=O)[C@H](CC(C)C)NC(=O)[C@H](Cc1c[nH]c2ccccc12)NC(=O)[C@H](CCCCN)NC(=O)[C@@H](NC(=O)[C@H](Cc1ccccc1)NC(=O)[C@H](CCC(=O)O)NC(=O)[C@H](CCC(N)=O)NC(=O)[C@H](CCC(N)=O)NC(=O)[C@H](C)NC(=O)[C@H](CCC(N)=O)NC(=O)[C@H](CCCCN)NC(=O)[C@H](CC(=O)O)NC(=O)[C@H](CC(C)C)NC(=O)[C@H](Cc1ccc(O)cc1)NC(=O)[C@H](CCCCN)NC(=O)C(C)(C)NC(=O)[C@H](Cc1ccc(O)cc1)NC(=O)[C@H](CC(=O)O)NC(=O)[C@H](CO)NC(=O)[C@@H](NC(=O)[C@](C)(Cc1ccccc1)NC(=O)[C@@H](NC(=O)CNC(=O)[C@H](CCC(=O)O)NC(=O)C(C)(C)NC(=O)[C@@H](N)Cc1ccc(O)cc1)[C@@H](C)O)[C@@H](C)O)C(C)C)C(=O)N[C@@H](CCCCN)C(=O)NCC(=O)NCC(=O)N1CCC[C@H]1C(=O)N[C@@H](CO)C(=O)N[C@@H](CO)C(=O)NCC(=O)N[C@@H](C)C(=O)N1CCC[C@H]1C(=O)N1CCC[C@H]1C(=O)N1CCC[C@H]1C(=O)N[C@@H](CO)C(=O)N[C@@H](CCCCN)C(N)=O [Example 25] (H-Y[Aib]EGT[αMeF]TSDY[Aib]KYLDKQAQQEFVKWLLKGGPSSGAPPPSK-NH2)	53.12	−11.2	
CC[C@H](C)[C@H](NC(=O)C(C)(C)NC(=O)[C@H](Cc1ccc(O)cc1)NC(=O)[C@H](CC(=O)O)NC(=O)[C@H](CO)NC(=O)[C@@H](NC(=O)[C@](C)(Cc1ccccc1)NC(=O)[C@@H](NC(=O)CNC(=O)[C@H](CCC(=O)O)NC(=O)C(C)(C)NC(=O)[C@H](Cc1ccc(O)cc1)NC)[C@@H](C)O)[C@@H](C)O)C(=O)NC(C)(C)C(=O)N[C@@H](CC(C)C)C(=O)N[C@@H](CC(=O)O)C(=O)N[C@@H](CCCCN)C(=O)N[C@@H](CCC(N)=O)C(=O)N[C@@H](C)C(=O)N[C@@H](CCC(N)=O)C(=O)N[C@@H](C)C(=O)N[C@@H](CCC(=O)O)C(=O)N[C@@H](Cc1ccccc1)C(=O)N[C@H](C(=O)N[C@@H](CCCCN)C(=O)N[C@@H](Cc1c[nH]c2ccccc12)C(=O)N[C@@H](CC(C)C)C(=O)N[C@@H](CC(C)C)C(=O)N[C@@H](CCCCN)C(=O)NCC(=O)NCC(=O)N1CCC[C@H]1C(=O)N[C@@H](CO)C(=O)N[C@@H](CO)C(=O)NCC(=O)N[C@@H](C)C(=O)N1CCC[C@H]1C(=O)N1CCC[C@H]1C(=O)N1CCC[C@H]1C(=O)N[C@@H](CO)C(=O)N[C@@H](CCCCN)C(N)=O)C(C)C [Example 23] (H-[NMeY][Aib]EGT[αMeF]TSDY[Aib]I[Aib]LDKQAQAEFVKWLLKGGPSSGAPPPSK-NH2)	52.62		> 1
